Measured values taken from US8735398B2 (Bristol-Myers Squibb Company, priority 2009, dated 2014).

test system: HCV 1b genotype; assay: HCV replicon assay (HCV-neo replicon cells, wild-type); type: cell-based, Hepatitis C virus; conditions: HCV 1b genotype replicon; class symbol; read-out: EC50 Range against HCV 1b
In short: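 HCV-neo replicon cells (wild-type) and replicon cells carrying NS5A resistance substitutions were treated with compounds; assay per O'Boyle et al. 2005, with luciferase-reporter read-out variants also used.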

| SMILES | EC50 |
| --- | --- |
| C[C@H](NC(=O)[C@](C)(O)c1ccccc1)C(=O)Nc1ccc(-c2cnc(-c3ccc(NC(=O)[C@H](C)NC(=O)[C@](C)(O)c4ccccc4)cc3)o2)cc1 [OL-57] | 4.57 to 99 nM |
| CC(C)(C)OC(=O)N1C(C(=O)N2CCCC2C(=O)Nc2ccc(-c3cnc(-c4ccc(NC(=O)C5CCCN5C(=O)C5CC6CC6N5C(=O)OC(C)(C)C)cc4)o3)cc2)CC2CC21 [Example D-31, di-tert-butyl (1S,3S,5S,1′S,3′S,5′S)-3,3′-(1,3-oxazole-2,5-diylbis(4,1-phenylenecarbamoyl(2S)-2,1-pyrrolidinediylcarbonyl))bis(2-azabicyclo[3.1.0]hexane-2-carboxylate)] | 1000 to 10000 nM |

same assay, conditions: HCV 1b genotype replicon; class symbols; read-out: EC50 Range against HCV 1b

| SMILES | EC50 |
| --- | --- |
| CN(C)C(Cn1cncn1)C(=O)N1CCC[C@H]1C(=O)Nc1ccc(-c2cnc(-c3ccc(NC(=O)[C@@H]4CCCN4C(=O)C(Cn4cncn4)N(C)C)cc3)o2)cc1 (stereo partly drawn) [JR-12, (2S)-N,N′-(4,4′-(oxazole-2,5-diyl)bis(4,1-phenylene))bis(1-(2-(dimethylamino)-3-(1H-1,2,4-triazol-1-yl)propanoyl)pyrrolidine-2-carboxamide)] | 100 to 999 nM |
| C[C@H](NC(=O)[C@H]1CCCO1)C(=O)Nc1ccc(-c2nnc(-c3ccc(NC(=O)[C@H](C)NC(=O)[C@H]4CCCO4)cc3)o2)cc1 [RK-35, (2R,2′R)-N,N′-(1,3,4-oxadiazole-2,5-diylbis(4,1-phenyleneimino((2S)-1-oxo-1,2-propanediyl)))ditetrahydro-2-furancarboxamide] | 1000 to 10000 nM |
| O=C(Nc1ccc(-c2cnc(-c3ccc(NC(=O)[C@@H]4C[C@@H](O)CN4C(=O)Cc4ccccn4)cc3)o2)cc1)[C@@H]1C[C@@H](O)CN1C(=O)Cc1ccccn1 [XY-58, (2S,4R,2′S,4′R)-N,N′-(1,3-oxazole-2,5-diyldi-4,1-phenylene)bis(4-hydroxy-1-(2-pyridinylacetyl)-2-pyrrolidinecarboxamide)] | 100 to 999 nM |

same assay, conditions: Hepatitis C virus, HCV 1b genotype replicon; class symbol; read-out: EC50 Range against HCV 1b

| SMILES | EC50 |
| --- | --- |
| O=C(Nc1ccc(-c2cc(-c3ccc(NC(=O)[C@@H]4CCCN4C(=O)c4nc5ccccc5s4)cc3)[nH]n2)cc1)[C@@H]1CCCN1C(=O)c1nc2ccccc2s1 [JG-41, (2S,2′S)-N,N′-(1H-pyrazole-3,5-diyldi-4,1-phenylene)bis(1-(1,3-benzothiazol-2-ylcarbonyl)-2-pyrrolidinecarboxamide)] | 100 to 999 nM |
| NC(=O)[C@@H]1C[C@@H]2C[C@@H]2N1C(=O)C1c2ccccc2C=CN1c1ccc(-c2ncc(-c3ccc(NC(=O)[C@@H]4C[C@@H]5C[C@@H]5N4C(=O)c4nccc5ccccc45)cc3)o2)cc1 (stereo partly drawn) [CB-2, (1S,3S,5S,1′S,3′S,5′S)-N,N′-(1,3-oxazole-2,5-diyldi-4,1-phenylene)bis(2-(1-isoquinolinylcarbonyl)-2-azabicyclo[3.1.0]hexane-3-carboxamide)] | 100 to 999 nM |
| CCOC(=O)Cc1nc(-c2ccc(NC(=O)[C@@H]3CCCN3C(=O)OCc3ccccc3)cc2)c(-c2ccc(NC(=O)[C@@H]3CCCN3C(=O)OCc3ccccc3)cc2)o1 [OL-2, 4,5-bis[4-[[[(2S)-1-[(phenylmethoxy)carbonyl]-2-pyrrolidinyl]carbonyl]amino]phenyl]-2-oxazoleacetic acid, ethyl ester] | 1000 to 10000 nM |
| CC(=O)N1CCC[C@H]1C(=O)Nc1ccc(-c2nc(-c3ccc(NC(=O)[C@@H]4C=CCN4C(=O)[C@@H]4CCCO4)cc3)cs2)cc1 [Example D-52, (2S)-N-[4-[2-[4-[[[(2S)-1-acetyl-2-pyrrolidinyl]carbonyl]amino]phenyl]-4-thiazolyl]phenyl]-2,5-dihydro-1-[[(2S)-tetrahydro-2-furanyl]carbonyl]-1H-pyrrole-2-carboxamide] | 1000 to 10000 nM |
| CSCC[C@H](NC(=O)Cc1ccccc1)C(=O)Nc1ccc(-c2cnc(-c3ccc(NC(=O)[C@H](CCSC)NC(=O)Cc4ccccc4)cc3)o2)cc1 [JG-13, (2S,2′S)-N,N′-(1,3-oxazole-2,5-diyldi-4,1-phenylene)bis(4-(methylsulfanyl)-2-((phenylacetyl)amino)butanamide)] | 100 to 999 nM |
| O=C(Nc1ccc(-c2n[nH]c(=O)n2-c2ccc(NC(=O)[C@@H]3CCCN3C(=O)OCc3ccccc3)cc2)cc1)[C@@H]1CCCN1C(=O)OCc1ccccc1 [OL-13, (2S,2′S)-2,2′-[(1,5-dihydro-5-oxo-4H-1,2,4-triazole-3,4-diyl)bis(4,1-phenyleneiminocarbonyl)]bis-1-pyrrolidinecarboxylic acid, bis(phenylmethyl) ester,] | 1000 to 10000 nM |
| C[C@H](NC(=O)[C@H](O)c1ccccc1)C(=O)Nc1ccc(-c2cc(-c3ccc(NC(=O)[C@@H](C)NC(=O)[C@H](O)c4ccccc4)cc3)[nH]n2)cc1 [OL-44, (S)-2-((R)-2-hydroxy-2-phenylacetamido)-N-(4-(5-(4-((R)-2-((R)-2-hydroxy-2-phenylacetamido)propanamido)phenyl)-1H-pyrazol-3-yl)phenyl)propanamide] | < 4.57 nM |
| O=C(Nc1ccc(-c2cc(-c3ccc(NC(=O)[C@@H]4CCCN4C(=O)c4cc5ccccc5o4)cc3)[nH]n2)cc1)[C@@H]1CCCN1C(=O)c1cc2ccccc2o1 [JG-40, (2S,2′S)-N,N′-(1H-pyrazole-3,5-diyldi-4,1-phenylene)bis(1-(1-benzofuran-2-ylcarbonyl)-2-pyrrolidinecarboxamide)] | 100 to 999 nM |
| COc1cc(C(=O)N2CCC[C@H](C(=O)Nc3ccc(-c4nnc(-c5ccc(NC(=O)[C@H]6CCCN(C(=O)c7cc(OC)c8ccccc8n7)C6)cc5)o4)cc3)C2)nc2ccccc12 [RK-26, (3S,3′S)-N,N′-(1,3,4-oxadiazole-2,5-diyldi-4,1-phenylene)bis(1-((4-methoxy-2-quinolinyl)carbonyl)-3-piperidinecarboxamide)] | 1000 to 10000 nM |
| O=C(Nc1ccc(-c2cc(-c3ccc(NC(=O)[C@@H]4CCCN4C(=O)C4CCC4)cc3)[nH]n2)cc1)[C@@H]1CCCN1C(=O)C1CCC1 [OL-33, (2S,2′S)-N,N′-(1H-pyrazole-3,5-diyldi-4,1-phenylene)bis(1-(cyclobutylcarbonyl)-2-pyrrolidinecarboxamide)] | 100 to 999 nM |
| O=C(Nc1ccc(-c2cc(-c3ccc(NC(=O)[C@@H]4CCCN4C(=O)c4ccncc4)cc3)[nH]n2)cc1)[C@@H]1CCCN1C(=O)c1ccncc1 [OL-34, (2S,2′S)-N,N′-(1H-pyrazole-3,5-diyldi-4,1-phenylene)bis(1-isonicotinoyl-2-pyrrolidinecarboxamide)] | 1000 to 10000 nM |
| C[C@H](NC(=O)OCc1ccccc1)C(=O)Nc1ccc(-c2n[nH]nc2-c2ccc(NC(=O)[C@H](C)NC(=O)OCc3ccccc3)cc2)cc1 [OL-18, [(1S)-1-methyl-2-oxo-2-[[4-[4-[4-[[(2S)-1-oxo-2-[[(phenylmethoxy)carbonyl]amino]propyl]amino]phenyl]-1H-1,2,3-triazol-5-yl]phenyl]amino]ethyl]-carbamic acid, phenylmethyl ester] | 4.57 to 99 nM |
| CC(O)(C(=O)N1CCC[C@H]1C(=O)Nc1ccc(-c2ncc(-c3ccc(NC(=O)[C@@H]4CCCN4C(=O)[C@@](C)(O)c4ccccc4)cc3)o2)cc1)c1ccccc1 (stereo partly drawn) [JG-22, (2S)-1-((2S)-2-hydroxy-2-phenylpropanoyl)-N-(4-(2-(4-((((2S)-1-(2-hydroxy-2-phenylpropanoyl)-2-pyrrolidinyl)carbonyl)amino)phenyl)-1,3-oxazol-5-yl)phenyl)-2-pyrrolidinecarboxamide] | < 4.57 nM |
| O=C(Nc1ccc(-c2cnc(-c3ccc(NC(=O)N[C@@H]4CCN(C(=O)[C@@H](O)c5ccccc5)C4)cc3)o2)cc1)N[C@@H]1CCN(C(=O)[C@@H](O)c2ccccc2)C1 [FY-6, N′,N′″-(1,3-oxazole-2,5-diyldi-4,1-phenylene)bis(1-((3R)-1-((2S)-2-hydroxy-2-phenylacetyl)-3-pyrrolidinyl)urea)] | 100 to 999 nM |

same assay, conditions: Hepatitis C virus, HCV 1b genotype replicon; class symbols; read-out: EC50 Range against HCV 1b

| SMILES | EC50 |
| --- | --- |
| Cc1cc(C(=O)N2CCC[C@H]2C(=O)Nc2ccc(-c3cnc(-c4ccc(NC(=O)[C@@H]5CCCN5C(=O)c5cc(C)oc5C)cc4)o3)cc2)c(C)o1 [XY-34, (2S,2′S)-N,N′-(1,3-oxazole-2,5-diyldi-4,1-phenylene)bis(1-(2,5-dimethyl-3-furoyl)-2-pyrrolidinecarboxamide)] | 100 to 999 nM |
| O=C(Nc1ccc(-c2cnc(-c3ccc(NC(=O)[C@@H]4CCCN4C(=O)c4ccccc4F)cc3)o2)cc1)[C@@H]1CCCN1C(=O)c1ccccc1F [XY-10, (2S,2′S)-N,N′-(1,3-oxazole-2,5-diyldi-4,1-phenylene)bis(1-(2-fluorobenzoyl)-2-pyrrolidinecarboxamide)] | 100 to 999 nM |
| COc1ccc(C(=O)N2CCC[C@H]2C(=O)Nc2ccc(-c3cnc(-c4ccc(NC(=O)[C@@H]5CCCN5C(=O)c5ccc(OC)cc5)cc4)o3)cc2)cc1 [XY-29, (2S,2′S)-N,N′-(1,3-oxazole-2,5-diyldi-4,1-phenylene)bis(1-(4-methoxybenzoyl)-2-pyrrolidinecarboxamide)] | 100 to 999 nM |
| O=C(Nc1ccc(-c2cnc(-c3ccc(NC(=O)[C@@H]4CCCN4C(=O)C(O)c4cccnc4)cc3)o2)cc1)[C@@H]1CCCN1C(=O)C(O)c1cccnc1 (stereo partly drawn) [JR-7, (2S,2′S)-N,N′-(2,5-oxazolediyldi-4,1-phenylene)bis[1-(hydroxy-3-pyridinylacetyl)-2-pyrrolidinecarboxamide]] | 4.57 to 99 nM |
| COC(C(=O)N1C[C@H](OC(C)(C)C)C[C@H]1C(=O)Nc1ccc(-c2cnc(-c3ccc(NC(=O)[C@@H]4C[C@@H](OC(C)(C)C)CN4C(=O)C(OC)c4ccccc4)cc3)o2)cc1)c1ccccc1 (stereo partly drawn) [XY-67, (2S,4R,2′S,4′R)-N,N′-(1,3-oxazole-2,5-diyldi-4,1-phenylene)bis(4-tert-butoxy-1-(methoxy(phenyl)acetyl)-2-pyrrolidinecarboxamide)] | 4.57 to 99 nM |
| CC(C)(C)O[C@@H]1C[C@@H](C(=O)Nc2ccc(-c3cnc(-c4ccc(NC(=O)[C@@H]5C[C@@H](OC(C)(C)C)CN5C(=O)OCc5ccccc5)cc4)o3)cc2)N(C(=O)OCc2ccccc2)C1 [XY-59, dibenzyl (2S,4R,2′S,4′R)-2,2′-(1,3-oxazole-2,5-diylbis(4,1-phenylenecarbamoyl))bis(4-tert-butoxy-1-pyrrolidinecarboxylate)] | 1000 to 10000 nM |

same assay, conditions: Hepatitis C virus, HCV 1b genotype replicon; read-out: EC50 1b

| SMILES | EC50 |
| --- | --- |
| C[C@H](NC(=O)OCc1ccccc1)C(=O)Nc1ccc(-c2n[nH]nc2-c2ccc(NC(=O)[C@H](C)NC(=O)OCc3ccccc3)cc2)cc1 [OL-18, [(1S)-1-methyl-2-oxo-2-[[4-[4-[4-[[(2S)-1-oxo-2-[[(phenylmethoxy)carbonyl]amino]propyl]amino]phenyl]-1H-1,2,3-triazol-5-yl]phenyl]amino]ethyl]-carbamic acid, phenylmethyl ester] | 92 nM |
| CC(O)(C(=O)N1CCC[C@H]1C(=O)Nc1ccc(-c2ncc(-c3ccc(NC(=O)[C@@H]4CCCN4C(=O)[C@@](C)(O)c4ccccc4)cc3)o2)cc1)c1ccccc1 (stereo partly drawn) [JG-22, (2S)-1-((2S)-2-hydroxy-2-phenylpropanoyl)-N-(4-(2-(4-((((2S)-1-(2-hydroxy-2-phenylpropanoyl)-2-pyrrolidinyl)carbonyl)amino)phenyl)-1,3-oxazol-5-yl)phenyl)-2-pyrrolidinecarboxamide] | < 5 nM |
